Square brackets hold non-standard residues; d marks the D form.
Legend:
[1] = test system: dry eye disease (desiccating stress to the eye); settings: summarised from published work, ref number not given, cited from earlier work
Source text: All of the data for these in vivo assays is now published , and will only be summarized here. […] This negative result is surprising because D3 is a potentiator of NGF in TrkA transfectants.

[2] = test system: HeLa-TrkA cells; settings: for activity class in cell survival assay, TrkA: HeLa-TrkA cells, 50 μM compound, with or without 0.2 nM NGF, 48-72 h
Protocol: (§1) Throughout, compounds were tested at 50 μM in TrkA- and C-expressing cells and 0.4 μM in TrkB-expressing cells. […] Samples were tested for promoting cell survival in the absence of NTs (agonism) or in the presence of suboptimal concentrations of NTs whose loops they were designed to mimic (NT potentiation).
(§2) Cells were seeded at a density of 2000 cells per well. Cells were incubated in complete media for 24
(§3) hours. The media was aspirated, the cells washed twice with Dulbecco’s Phosphate Buffered Saline,
(§4) and the media was replaced with serum-free media to induce apoptosis unless otherwise halted.
(§5) Compound was added to cells (50 μM compound to HeLa-TrkA and NIH3T3-TrkC cells, 0.4 μM for
(§6) HEK293-TrkB) alone (agonism) or in the presence of suboptimal neurotrophin (~25 to 30% survival,
(§7) 0.2 nM NGF, 0.6 nM BDNF, or 0.2 nM NT3 for TrkA, B, or C expressing cells respectively). Cell
(§8) survival was measured via alamarBlue assay after 48-72 hours to determine cell viability. Data was
(§9) normalized to DMSO treatment (0%) and optimal neurotrophin (100%, 2.0 nM NGF, 1.0 nM BDNF,
(§10) 2.0 nM NT-3 for TrkA, B, or C expressing cells, respectively).
HeLa-TrkA cells were treated with 50 μM compound with or without suboptimal (0.2 nM) levels of
NGF and cell survival was analyzed after 48-72 hours by the alamarBlue assay. Data was
normalized to DMSO (0%) and 2.0 nM NGF (100%). Data is represented as the average of 3-6
(§11) points +/- standard deviation from the mean.
(§12) with a serial dilution of the compound in serum free media with or without suboptimal neurotrophin
(§13) and incubated for 48-72 hours, after which an alamarBlue assay was done to determine cell viability.
(§14) Cell viability was normalized to DMSO (0%) and optimal neurotrophin (100%), depending on cell type.
(§15) EC50 was calculated in GraphPad Prism 10.2 using the dose response “[agonist] vs response –
(§16) Variable slope (four parameters)” function. Data is presented as the mean +/- standard deviation of
an experiment with 3-6 replicates.

[3] = test system: NIH3T3-TrkC cells; settings: for activity class in cell survival assay, TrkC: NIH3T3-TrkC cells, 50 μM compound, with or without 0.2 nM NT-3, 48-72 h
Protocol: as §1
Cell Survival Compound Screen
as §2, §3, §4, §5, §6, §7, §8, §9, §10
Cell Survival of NIH3T3-TrkC Cells
NIH3T3-TrkC cells were treated with 50 μM compound with or without suboptimal (0.2 nM) levels of
NT-3 and cell survival was analyzed after 48-72 hours by the alamarBlue assay. Data was
normalized to DMSO (0%) and 2.0 nM NT-3 (100%). Data is represented as the average of 3-6
as §11
Cell Survival Dose Response
as §12, §13, §14, §15, §16
an experiment with 3-6 replicates.

[4] = test system: HEK293-TrkB cells; settings: for activity class in cell survival assay, TrkB: HEK293-TrkB cells, 0.4 μM compound, with or without 0.6 nM BDNF, 48-72 h; for shape of dose-response curve, cell survival: HEK293-TrkB cells with 0.6 nM BDNF (suboptimal), EC50s could not be determined
Protocol: as §1
Cell Survival Compound Screen
as §2, §3, §4, §5, §6, §7, §8, §9, §10
Cell Survival of HEK293-TrkB Cells
HEK293-TrkB cells were treated with 0.4 μM compound with or without suboptimal (0.6 nM) levels of
BDNF and cell survival was analyzed after 48-72 hours by the alamarBlue assay. Data was
normalized to DMSO (0%) and 1.0 nM BDNF (100%). Data is represented as the average of 3-6
as §11
Cell Survival Dose Response
The most promising compounds from the screen were selected for each cell line. Cells were treated
as §12, §13, §14, §15, §16
an experiment with 3-6 replicates.

Compound	corneal barrier function ([1]; murine dry eye disease model)	activity class in cell survival assay, TrkA [2]	activity class in cell survival assay, TrkC [3]	activity class in cell survival assay, TrkB [4]	EC50 [2] [µM]	shape of dose-response curve, cell survival [4]	also measured
CC[C@H](C)[C@@H]1NC(=O)[C@H](CC(=O)O)NC(=O)[C@@H]2C[C@@H](CN2)NC(=O)CNC(=O)[C@H](CCCNC(=N)N)NC1=O [3c(i)]	increased corneal barrier function	agonist of TrkA	potentiator of BDNF and NT-3	potentiator of BDNF and NT-3			maximum activity, % survival compared with that imparted by NT-3 ([3]; 24 h): ~52%; EC50 [4]: 1 µM; maximum activity, % of the maximum survival imparted by BDNF ([4]; 24 h): ~53%
cyclo([dN]-Lys-Val) [4c(iii)nKV]	increased corneal barrier function		selectively modulate cell survival through the TrkC receptors				NFκB activation (marker of inflammation) ([1]; biochemical experiments in the dry eye studies): decreases NFκB activation; conjunctival goblet cell densities ([1]; murine dry eye disease model, further studies): increase conjunctival goblet cell densities; EC50 ([3]; read-out: EC50, cell survival of TrkC cells with suboptimal NT-3 (unit inferred), NIH3T3-TrkC cells with 0.2 nM NT-3, sigmoidal dose response, 48-72 h, alamarBlue): 8.7 µM
CC[C@H](C)[C@@H]1NC(=O)[C@H](CC(N)=O)NC(=O)[C@H](C(C)C)n2cc(nn2)C[C@@H](C(=O)N[C@@H](CCCCNS(=O)(=O)c2cccc3c(N(C)C)cccc23)C(=O)O)NC(=O)[C@H](Cc2ccccc2)NC(=O)[C@H](C(C)C)NC(=O)[C@H](CO)NC(=O)[C@H](CC(N)=O)NC(=O)[C@H](CC(N)=O)NC1=O [1a(ii)ext]		selective TrkA agonists			7.1		
cyclo(DSKK) [3b(iii)]				BDNF potentiators		bell-shaped dose–response curve	
CC[C@H](C)[C@@H]1NC(=O)[C@@H]2C[C@@H](CN2)NC(=O)[C@H](CO)NC(=O)[C@H](CC(N)=O)NC(=O)[C@H](CC(N)=O)NC1=O [3a(ii)]		selective TrkA agonists			10.2		activity in the preliminary in vivo screen ([1]; murine dry eye disease model): no significant activity
M DSKKR (sidechain bridge or staple) [1b(iii)]				BDNF potentiators		bell-shaped dose–response curve	

Source: paper PMC12333011, “Selective Modulation of Trk Receptors by Cyclo-Organopeptides” (ACS Chemical Neuroscience, 2025)
